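Five concentrations, 48 hours, 96-well plates. Here, GI50 denotes the concentration required for 50% inhibition of growth. Definition used: TGI = concentration required for complete inhibition of growth.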
Tests used:
Assay in all cases: DTP human tumour cell line panel, 48 h
[1] = system: SNB-75 CNS
[2] = system: HCT-15 colon
[3] = system: SF-539 CNS
[4] = system: OVCAR-3 ovarian
[5] = system: SNB-19 CNS
[6] = system: SK-MEL-28 melanoma
[7] = system: M14 melanoma
[8] = system: A498 renal
[9] = system: PC-3 prostate
[10] = system: SK-MEL-5 melanoma
[11] = system: TK-10 renal
[12] = system: SF-295 CNS
[13] = system: HCC-2998 colon
[14] = system: MCF7 breast
[15] = system: UO-31 renal
[16] = system: OVCAR-4 ovarian
[17] = system: DU-145 prostate
[18] = system: LOX IMVI melanoma
[19] = system: SW-620 colon
[20] = system: NCI/ADR-RES ovarian
[21] = system: RPMI-8226 leukemia
[22] = system: KM12 colon
[23] = system: SN12C renal
[24] = system: MOLT-4 leukemia
[25] = system: UACC-62 melanoma
[26] = system: HCT-116 colon
[27] = system: HT29 colon
[28] = system: BT-549 breast
[29] = system: UACC-257 melanoma
[30] = system: CCRF-CEM leukemia
[31] = system: U251 CNS
[32] = system: OVCAR-5 ovarian
[33] = system: OVCAR-8 ovarian
[34] = system: SK-OV-3 ovarian
[35] = system: HOP-92 NSCLC
[36] = system: ACHN renal
[37] = system: 786-0 renal
[38] = system: EKVX NSCLC
[39] = system: SF-268 CNS
[40] = system: RXF 393 renal
[41] = system: NCI-H226 lung
[42] = system: IGROV1 ovarian
[43] = system: NCI-H23 lung
[44] = system: MALME-3M melanoma
[45] = system: CAKI-1 renal
[46] = system: A549 NSCLC
[47] = system: K-562 leukemia
[48] = system: HOP-62 NSCLC
[49] = system: NCI-H460 lung
[50] = system: SR leukemia
[51] = system: COLO 205 colon
[52] = system: MDA-MB-435
[53] = system: SK-MEL-2 melanoma
[54] = system: T-47D breast
[55] = system: MDA-MB-231 breast
[56] = system: HL-60(TB) leukemia
[57] = system: HS 578T breast

Clc1ccc2nc(CI)c(CI)nc2c1
GI50 [1]: 8.87 µM
TGI [1]: 23.2 µM
GI50 [2]: 3.46 µM
TGI [2]: 12.1 µM
GI50 [3]: 2.46 µM
TGI [3]: 6.31 µM
GI50 [4]: 3.02 µM
TGI [4]: 7.14 µM
GI50 [5]: 33.2 µM
TGI [5]: > 59.4 µM
GI50 [6]: 14.4 µM
TGI [6]: 27.7 µM
GI50 [7]: 3.16 µM
TGI [7]: > 19.8 µM
GI50 [8]: 29.7 µM
TGI [8]: > 60.7 µM
GI50 [9]: 7.02 µM
TGI [9]: 29.9 µM
GI50 [10]: 4.59 µM
TGI [10]: 14.3 µM
GI50 [11]: 3 µM
TGI [11]: 10.2 µM
GI50 [12]: 15.4 µM
TGI [12]: 36.8 µM
GI50 [13]: 15.7 µM
TGI [13]: 30.3 µM
GI50 [14]: 2.87 µM
TGI [14]: 9.53 µM
GI50 [15]: 1.72 µM
TGI [15]: 3.5 µM
GI50 [16]: 2.45 µM
TGI [16]: 6.22 µM
GI50 [17]: 10.1 µM
TGI [17]: 23.5 µM
GI50 [18]: 1.64 µM
TGI [18]: 3.37 µM
GI50 [19]: 2.54 µM
TGI [19]: 6.62 µM
GI50 [20]: 6.8 µM
TGI [20]: > 57.7 µM
GI50 [21]: 2.62 µM
TGI [21]: 8.25 µM
GI50 [22]: 6.07 µM
TGI [22]: 17.6 µM
GI50 [23]: 2.94 µM
TGI [23]: 8.62 µM
GI50 [24]: 1.89 µM
TGI [24]: 9.08 µM
GI50 [25]: 4.73 µM
TGI [25]: 17.2 µM
GI50 [26]: 2.53 µM
GI50 [27]: 3.74 µM
TGI [27]: 19.6 µM
GI50 [28]: 2.11 µM
TGI [28]: 5.58 µM
GI50 [29]: 4.51 µM
TGI [29]: 16.8 µM
GI50 [30]: 2.3 µM
TGI [30]: 15.3 µM
GI50 [31]: 2.71 µM
TGI [31]: 7.23 µM
GI50 [32]: 6.98 µM
TGI [32]: 19.5 µM
GI50 [33]: 2.87 µM
TGI [33]: > 23.5 µM
GI50 [34]: 23.1 µM
TGI [34]: > 58 µM
GI50 [35]: 3 µM
TGI [35]: 8.3 µM
GI50 [36]: 1.83 µM
TGI [36]: 3.4 µM
GI50 [37]: 4.07 µM
GI50 [38]: 13.6 µM
TGI [38]: 40.9 µM
GI50 [39]: 4.69 µM
TGI [39]: 14.3 µM
GI50 [40]: 4.04 µM
TGI [40]: 9.36 µM
GI50 [41]: 10.4 µM
TGI [41]: > 38 µM
GI50 [42]: 2.73 µM
TGI [42]: 8.36 µM
GI50 [43]: 7.37 µM
TGI [43]: 25.8 µM
GI50 [44]: 1.75 µM
TGI [44]: 3.83 µM
GI50 [45]: 9.56 µM
TGI [45]: 24.9 µM
GI50 [46]: 17.8 µM
TGI [46]: 38.7 µM
GI50 [47]: 1.53 µM
TGI [47]: 7.86 µM
GI50 [48]: 28.7 µM
TGI [48]: > 56.3 µM
GI50 [49]: 10.1 µM
TGI [49]: 27.1 µM
GI50 [50]: 1.68 µM
TGI [50]: 6.79 µM
GI50 [51]: 1.77 µM
TGI [51]: 3.28 µM
GI50 [52]: 3.16 µM
TGI [52]: 14.4 µM
GI50 [53]: 6.45 µM
TGI [53]: > 32.6 µM
GI50 [54]: 2.6 µM
TGI [54]: 8.28 µM
GI50 [55]: 2.67 µM
TGI [55]: 7.58 µM
GI50 [56]: 1.23 µM
TGI [56]: 9.06 µM
GI50 [57]: 20.6 µM
TGI [57]: > 65.5 µM
